Test results taken from patent US8497256B2, “Formulations and uses of 2-hydroxy-5-phenylazobenzoic acid derivatives for the treatment of males” (Salix Pharmaceuticals, Ltd, priority 2010, dated 2013).
Structures can show the parent of a compound that is named as a salt. Where two headings read alike, the source gives them in different places. Marks after values point to notes of the source that are not given here. Each block holds one compound with its values, some of them ahead of it.

Tests used:
CYP1A2 [1] = target: T1, CYP1A2 (Homo sapiens, UniProt P05177); assay: CYP inhibition in human liver microsomes
T1 sequence (P05177 1-516): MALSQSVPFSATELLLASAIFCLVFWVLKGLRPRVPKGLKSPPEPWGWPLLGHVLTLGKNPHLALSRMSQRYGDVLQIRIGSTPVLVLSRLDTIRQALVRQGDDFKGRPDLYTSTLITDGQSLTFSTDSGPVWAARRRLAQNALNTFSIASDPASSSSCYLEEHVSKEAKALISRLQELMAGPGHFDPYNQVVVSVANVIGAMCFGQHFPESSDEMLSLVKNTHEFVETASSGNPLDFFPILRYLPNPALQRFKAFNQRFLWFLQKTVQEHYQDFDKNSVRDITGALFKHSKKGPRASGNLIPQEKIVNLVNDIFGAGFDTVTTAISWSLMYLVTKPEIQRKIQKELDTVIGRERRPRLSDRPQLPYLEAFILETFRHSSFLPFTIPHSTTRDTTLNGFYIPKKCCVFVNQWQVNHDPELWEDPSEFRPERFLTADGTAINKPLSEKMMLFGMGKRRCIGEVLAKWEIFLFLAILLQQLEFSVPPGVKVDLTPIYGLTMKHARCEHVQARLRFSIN

[2] = Pharmacokinetics after single and repeated doses of 3.3 g GIAZO in healthy subjects
Source text: Before further description and in order that the invention may be more readily understood, certain terms are first defined and collected here for convenience. Common pharmacologic term used herein refer are as follows: Tmax (time to maximum concentration); Cmax (observed maximum concentration); kel (slope of terminal linear portion of concentration/time curve); T1/2 (half-life of balsalazide calculated as: 0.693/Kel); AUC(last) (area under the curve to last quantifiable concentration as measured by the trapezoidal rule); and AUC(inf) (the AUC value extrapolated to infinity calculated as: AUC(inf)=AUC(last)+C(t)last/Kel where C(t) last is the last measurable concentration).

CYP3A4/5 [3] = assay: CYP inhibition in human liver microsomes
CYP2C19 [4] = target: T2, CYP2C19 (Homo sapiens, UniProt P33261); assay: CYP inhibition in human liver microsomes
CYP2C9 [5] = target: T3, CYP2C9 (Homo sapiens, UniProt P11712); assay: CYP inhibition in human liver microsomes
[6] = cited from earlier work
CYP2D6 [7] = target: T4, CYP2D6 (Homo sapiens, UniProt P10635); assay: CYP inhibition in human liver microsomes
[8] = Food effect on pharmacokinetics, single 3.3 g dose of GIAZO; conditions: single dose 3.3 g GIAZO; for Change (reduction) of AUC0-∞ under fed conditions / Reduction of mean Cmax under fed conditions: high-fat meal vs fasted; for Tmax: human, plasma, po, 3.3 g, Median Tmax
human plasma proteins [9] = assay: Plasma protein binding
[10] = human, in vivo, po, 3.3 g
clinical = conditions: human, in vivo, po, 3.3 g, Median Tmax
human plasma proteins [11] = tested on: human plasma proteins
CYP2C19 [12] = target: T2, CYP2C19; conditions: microsomes
CYP2C9 [13] = target: T3, CYP2C9; conditions: microsomes
CYP1A2 [14] = target: T1, CYP1A2; conditions: microsomes
CYP2D6 [15] = target: T4, CYP2D6; conditions: microsomes
[16] = 24-month rat carcinogenicity study; type: in vivo, rat (Sprague Dawley); conditions: 24 months, oral (dietary), doses up to 2 g/kg/day
Source text: (§1) For a 50 kg person of average height this dose represents 2.5 times the recommended human dose on a body surface area basis. Balsalazide disodium was not genotoxic in the following in vitro or in vivo tests: Ames test, human lymphocyte chromosomal aberration test, and mouse lymphoma cell (L5178Y/TK+/−) forward mutation test, or mouse micronucleus test. However, it was genotoxic in the in vitro Chinese hamster lung cell (CH V79/HGPRT) forward mutation test.

[17] = tested on: Chinese hamster lung cell (CH V79/HGPRT); type: cell-based
Source text: as §1

[18] = Reproduction studies in rabbits; type: in vivo, rabbit; conditions: oral doses up to 2 g/kg/day
Source text: (§2) There are, however, no adequate and well-controlled studies in pregnant women. Because animal reproduction studies are not always predictive of human response, this drug should be used during pregnancy only if clearly needed.

[19] = Reproduction / fertility studies in rats; type: in vivo, rat; conditions: oral doses up to 2 g/kg/day
Source text: as §2
(§3) The compound 4-aminobenzoyl-β-alanine, a metabolite of balsalazide disodium, was not genotoxic in the Ames test and the mouse lymphoma cell (L5178Y/TK+/−) forward mutation test but was positive in the human lymphocyte chromosomal aberration test. N-acetyl-4-aminobenzoyl-β-alanine, a conjugated metabolite of balsalazide disodium, was not genotoxic in Ames test, the mouse lymphoma cell (L5178Y/TK+/−) forward mutation test, or the human lymphocyte chromosomal aberration test.

human lymphocyte = assay: Human lymphocyte chromosomal aberration test; type: cell-based; conditions: in vitro
Source text: as §1, §3

Ames test = type: cell-based; conditions: in vitro
Source text: as §1, §3

Mouse micronucleus test = conditions: in vivo
Source text: as §1

[20] = Solubility of balsalazide disodium; type: physicochemical
Source text: It is a stable, odorless, orange to yellow, microcrystalline powder. […] Balsalazide disodium has the chemical name (E)-5-[[-4-[[(2-carboxyethyl) amino]carbonyl]phenyl]azo]-2-hydroxybenzoic acid, disodium salt, dihydrate (Molecular Weight: 437.32; Molecular Formula: C17H13N3O6Na2.2H2O).
Each GIAZO tablet contains 1.1 g of balsalazide disodium, film-coated for oral delivery. Balsalazide disodium is insoluble in acid, but soluble at a pH of at least 4.5. […] The sodium content of each tablet is approximately 126 mg.
Mesalamine is 5-aminosaliacylic acid and appears to act topically.

[21] = tested on: mouse lymphoma cell (L5178Y/TK+/−); assay: Mouse lymphoma cell forward mutation test; type: cell-based; conditions: in vitro
Source text: as §1, §3

CYP3A4/5 [22] = conditions: microsomes
[23] = repeated dose (Q12) 3.3 g as GIAZO, N = 18
[24] = single dose 3.3 g as GIAZO, N = 18
[25] = human, in vivo, Terminal half-life

T2 sequence (P33261 whole entry): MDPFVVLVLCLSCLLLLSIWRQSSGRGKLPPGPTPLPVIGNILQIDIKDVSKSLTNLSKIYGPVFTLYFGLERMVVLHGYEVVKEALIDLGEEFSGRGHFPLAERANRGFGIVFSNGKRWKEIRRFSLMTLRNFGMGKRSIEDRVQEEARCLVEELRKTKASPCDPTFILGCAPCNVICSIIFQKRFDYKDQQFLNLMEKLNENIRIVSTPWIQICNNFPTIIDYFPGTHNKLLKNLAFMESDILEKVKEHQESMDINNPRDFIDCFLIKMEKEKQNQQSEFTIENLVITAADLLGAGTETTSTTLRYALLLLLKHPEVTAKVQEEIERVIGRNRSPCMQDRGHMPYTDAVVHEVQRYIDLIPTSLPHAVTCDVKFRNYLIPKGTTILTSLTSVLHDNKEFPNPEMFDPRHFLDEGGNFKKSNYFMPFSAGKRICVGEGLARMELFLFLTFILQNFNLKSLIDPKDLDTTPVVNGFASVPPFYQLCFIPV
T3 sequence (P11712 whole entry): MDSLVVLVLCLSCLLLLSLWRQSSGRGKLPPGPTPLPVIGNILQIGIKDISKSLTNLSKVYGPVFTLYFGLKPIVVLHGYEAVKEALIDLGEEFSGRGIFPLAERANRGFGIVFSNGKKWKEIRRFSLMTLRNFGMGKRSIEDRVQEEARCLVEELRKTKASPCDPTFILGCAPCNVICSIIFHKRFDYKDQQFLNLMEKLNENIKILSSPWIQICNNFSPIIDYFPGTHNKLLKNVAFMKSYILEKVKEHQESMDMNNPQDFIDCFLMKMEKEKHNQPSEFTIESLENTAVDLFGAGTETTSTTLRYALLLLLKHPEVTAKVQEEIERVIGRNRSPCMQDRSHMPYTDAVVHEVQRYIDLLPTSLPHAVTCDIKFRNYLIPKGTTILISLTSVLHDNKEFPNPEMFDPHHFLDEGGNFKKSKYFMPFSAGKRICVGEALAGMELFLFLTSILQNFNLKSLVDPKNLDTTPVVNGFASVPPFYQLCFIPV
T4 sequence (P10635 whole entry): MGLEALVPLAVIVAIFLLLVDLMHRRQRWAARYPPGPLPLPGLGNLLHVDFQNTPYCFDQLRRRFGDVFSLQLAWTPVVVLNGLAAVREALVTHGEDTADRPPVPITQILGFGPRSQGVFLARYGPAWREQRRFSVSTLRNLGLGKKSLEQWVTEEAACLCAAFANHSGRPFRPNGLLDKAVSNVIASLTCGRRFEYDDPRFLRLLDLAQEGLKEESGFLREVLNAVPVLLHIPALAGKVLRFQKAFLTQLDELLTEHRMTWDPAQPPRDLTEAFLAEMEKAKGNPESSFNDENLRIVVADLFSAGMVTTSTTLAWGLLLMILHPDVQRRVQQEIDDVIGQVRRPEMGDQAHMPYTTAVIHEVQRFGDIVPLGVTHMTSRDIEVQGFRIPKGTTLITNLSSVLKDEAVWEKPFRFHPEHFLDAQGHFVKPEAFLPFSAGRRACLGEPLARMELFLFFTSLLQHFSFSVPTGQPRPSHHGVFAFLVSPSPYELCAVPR

Structure (SMILES): CC(=O)Nc1ccc(O)c(C(=O)O)c1 [N-Ac-5-ASA, N-acetyl-5-aminosalyicylic acid]
Inhibition of CYP1A2 (CYP1A2 [1]): not shown to inhibit
Terminal half-life [2]: 10.5 h
T1/2, mean ([2]; repeated dose (Q12) 3.3 g as GIAZO): 7.2 h
AUCtau, mean [2, 23]: 21000 ng·h/mL
Cmax, mean [2, 23]: 2200 ng/mL
Tmax, median [2, 23]: 10 h
Accumulation ratio based on AUC ([2]; repeated doses of 3.3 g GIAZO every 12 hours, steady-state vs single dose): 3.6
Median time of peak plasma concentration (Tmax) ([2]; single dose 3.3 g GIAZO, 18 healthy subjects): 12 h
AUC0-∞, mean [2, 24]: 33500 ng·h/mL
AUCtau, mean [2, 24]: 5900 ng·h/mL
Cmax, mean [2, 24]: 1200 ng/mL
Tmax, median [2, 24]: 12 h
T1/2, mean ([2]; single dose 3.3 g as GIAZO, N = 17 where marked b): 10.4^b hour
Mean % of dose excreted in urine over 12 hours ([2]; steady-state, 3.3 g GIAZO every 12 hours, healthy volunteers): 15.6%
Inhibition of CYP3A4/5 (CYP3A4/5 [3]): not shown to inhibit
Inhibition of CYP2C19 (CYP2C19 [4]): not shown to inhibit
Inhibition of CYP2C9 (CYP2C9 [5]): not shown to inhibit
Percent of the oral dose measured in the blood / systemically absorbed ([6]; oral dose): ~12%
Inhibition of CYP2D6 (CYP2D6 [7]): not shown to inhibit
Median Tmax ([8]; fasted): 12 h
Change (reduction) of AUC0-∞ under fed conditions [8]: 17%
Reduction of mean Cmax under fed conditions [8]: 48%
Median Tmax ([8]; with a high fat meal): 24 h
Binding to plasma proteins (human plasma proteins [9]): 78%

Median Tmax [10]: 24 h
AUC(0-inf) ([2]; human, in vivo): 8500 ng·h/mL
AUCtau, mean ([2]; human, in vivo): 2200 ng·h/mL
Cmax, mean ([2]; human, in vivo): 500 ng/mL
Tmax ([2]; human, in vivo): 12 h
half-life ([2]; human, in vivo, T1/2, mean): 9.5 h
half-life [2, 25]: 9.5 h
Tmax (clinical): 12 h
Binding to plasma proteins (human plasma proteins [11]): 43%
Inhibition of CYP2C19 (CYP2C19 [12]): not shown to inhibit
Inhibition of CYP2C9 (CYP2C9 [13]): not shown to inhibit
Inhibition of CYP1A2 (CYP1A2 [14]): not shown to inhibit
Inhibition of CYP2D6 (CYP2D6 [15]): not shown to inhibit
Change (reduction) of AUC0-∞ under fed conditions [8]: 46%
Reduction of mean Cmax under fed conditions [8]: 65%
Structure (SMILES): Nc1ccc(O)c(C(=O)O)c1 [5-ASA, 5-aminosalicylic acid]

Solubility in acid ([20]; acid): insoluble
Solubility in all other organic solvents ([20]; all other organic solvents): practically insoluble
Solubility in methanol and ethanol ([20]; methanol and ethanol): sparingly soluble
pH at which soluble ([20]; pH): at least 4.5
Water solubility ([20]; water): highly water-soluble
Solubility in water and isotonic saline ([20]; water and isotonic saline): freely soluble
Structure (SMILES): O=C(O)CCNC(=O)c1ccc(/N=N/c2ccc(O)c(C(=O)O)c2)cc1 [balsalazide disodium, (E)-5-[[-4-[[(2-carboxyethyl)amino]carbonyl]phenyl]azo]-2-hydroxybenzoic acid, disodium salt, dihydrate]
Tumorigenicity [16]: not tumorigenic
Genotoxicity, Chinese hamster lung cell (CH V79/HGPRT) forward mutation test [17]: genotoxic
Impaired fertility or harm to the fetus [18]: no evidence of impaired fertility or harm to the fetus
Effect on fertility and reproductive performance [19]: no effect on fertility and reproductive performance
Impaired fertility or harm to the fetus [19]: no evidence of impaired fertility or harm to the fetus
Genotoxicity, human lymphocyte chromosomal aberration test (human lymphocyte): not genotoxic
Genotoxicity, Ames test (Ames test): not genotoxic
Genotoxicity, mouse micronucleus test (Mouse micronucleus test): not genotoxic
Genotoxicity, mouse lymphoma cell (L5178Y/TK+/−) forward mutation test [21]: not genotoxic

Inhibition of CYP3A4/5 (CYP3A4/5 [22]): not shown to inhibit
Inhibition of CYP2C19 (CYP2C19 [12]): not shown to inhibit
Inhibition of CYP2C9 (CYP2C9 [13]): not shown to inhibit
Inhibition of CYP1A2 (CYP1A2 [14]): not shown to inhibit
Inhibition of CYP2D6 (CYP2D6 [15]): not shown to inhibit
Structure (SMILES): Nc1ccc(C(=O)NCCC(=O)O)cc1 [4-ABA, 4-aminobenzoyl-β-alanine]
Genotoxicity, human lymphocyte chromosomal aberration test (human lymphocyte): positive
Absorption of the released carrier component ([6]; largely eliminated in the feces): poorly absorbed
Genotoxicity, Ames test (Ames test): not genotoxic
Genotoxicity, mouse lymphoma cell (L5178Y/TK+/−) forward mutation test [21]: not genotoxic

AUC(0-inf) ([2]; human, in vivo): 1400 ng·h/mL
T1/2, mean ([2]; human, in vivo): 1.9 h
Tmax ([2]; human, in vivo): 0.5 h
AUC ([2]; human, in vivo, AUCtau, mean): 1300 ng·h/mL
Cmax ([2]; human, in vivo, Cmax, mean): 300 ng/mL
half-life [2, 25]: 1.9 h
Inhibition of CYP3A4/5 (CYP3A4/5 [22]): not shown to inhibit
Inhibition of CYP2C19 (CYP2C19 [12]): not shown to inhibit
Inhibition of CYP2C9 (CYP2C9 [13]): not shown to inhibit
Inhibition of CYP1A2 (CYP1A2 [14]): not shown to inhibit
Inhibition of CYP2D6 (CYP2D6 [15]): not shown to inhibit
Change (reduction) of AUC0-∞ under fed conditions [8]: No significant changes
Reduction of mean Cmax under fed conditions [8]: 44%
Tmax ([8]; fasted): 0.5 h
Tmax ([8]; with a high fat meal): 2 h
Binding to plasma proteins (human plasma proteins [9]): ≥ 99%
Structure (SMILES): O=C(O)CCNC(=O)c1ccc(/N=N/c2ccc(O)c(C(=O)O)c2)cc1 [balsalazide]
